Measured values as given in ChEMBL document CHEMBL1132409, “Pharmacological treatment of obesity: therapeutic strategies” (J Med Chem, 1999).
Blank lines part the entries; values can stand above or below the compound they belong to.

Assays:
[1] = Oral bioavailability of the compound.; assay type: ADME, organism-based; conditions: in vivo
[2] = target: T1, Beta-3 adrenergic receptor (Homo sapiens, UniProt P13945); test: Binding affinity towards Beta-3 adrenergic receptor
Target sequence in this assay (P13945 whole entry): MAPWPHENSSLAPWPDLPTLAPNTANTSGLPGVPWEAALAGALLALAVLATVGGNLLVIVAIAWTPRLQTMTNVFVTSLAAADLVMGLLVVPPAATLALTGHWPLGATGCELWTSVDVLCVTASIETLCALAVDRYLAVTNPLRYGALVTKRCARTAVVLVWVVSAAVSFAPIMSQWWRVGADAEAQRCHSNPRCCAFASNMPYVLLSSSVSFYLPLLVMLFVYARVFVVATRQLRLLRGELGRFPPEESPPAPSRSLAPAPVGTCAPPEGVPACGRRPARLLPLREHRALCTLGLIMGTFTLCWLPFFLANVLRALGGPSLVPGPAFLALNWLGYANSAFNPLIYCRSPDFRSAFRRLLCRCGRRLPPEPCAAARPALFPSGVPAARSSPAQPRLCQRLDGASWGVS

[3] = target: T1, Beta-3 adrenergic receptor; test: Beta-3 adrenergic receptor intrinsic activity relative to isoproterenol
Target sequence in this assay (P13945 whole entry, looked up): as the sequence (P13945 whole entry) above

[4] = target: T2, Neuropeptide Y receptor type 5 (Rattus norvegicus, UniProt Q63634); test: The compound was tested for the binding affinity against Neuropeptide Y receptor type 5 in rat
T2 sequence (Q63634 whole entry): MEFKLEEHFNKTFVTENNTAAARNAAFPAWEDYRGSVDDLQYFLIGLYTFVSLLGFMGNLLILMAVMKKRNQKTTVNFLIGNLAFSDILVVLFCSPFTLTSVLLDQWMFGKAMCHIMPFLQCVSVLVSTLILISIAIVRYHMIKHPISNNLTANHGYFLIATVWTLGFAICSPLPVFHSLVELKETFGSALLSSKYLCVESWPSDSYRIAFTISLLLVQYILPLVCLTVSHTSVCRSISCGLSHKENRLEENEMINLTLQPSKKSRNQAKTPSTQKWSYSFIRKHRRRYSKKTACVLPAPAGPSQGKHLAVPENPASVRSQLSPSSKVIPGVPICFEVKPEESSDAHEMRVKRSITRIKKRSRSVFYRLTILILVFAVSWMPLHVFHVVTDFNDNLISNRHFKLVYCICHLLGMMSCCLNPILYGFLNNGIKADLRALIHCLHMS

[5] = target: T1, Beta-3 adrenergic receptor; test: Binding affinity towards human Beta-3 adrenergic receptor
Target sequence in this assay (P13945 whole entry): as the sequence (P13945 whole entry) above

Rattus norvegicus = test: Ability to inhibit the food intake of Sprague-Dawley rats at 30 mg/kg after intraperitoneal administration.; assay type: functional; conditions: ip
[6] = Oral bioavailability in rat; assay type: ADME, organism-based; conditions: in vivo
[7] = Bioavailability in dog; assay type: ADME, organism-based, Canis lupus familiaris; conditions: in vivo
[8] = Bioavailability in rat; assay type: ADME, organism-based; conditions: in vivo, read-out: Bioavailabiility
[9] = Bioavailability in dogs; assay type: ADME, organism-based, Canis lupus familiaris; conditions: dog, in vivo; read-out: Bioavailabiility
[10] = target: T3, Neuropeptide Y receptor type 1 (Rattus norvegicus, UniProt P21555); test: The compound was tested for the binding affinity against Neuropeptide Y receptor type 1 in rat
T3 sequence (P21555 whole entry): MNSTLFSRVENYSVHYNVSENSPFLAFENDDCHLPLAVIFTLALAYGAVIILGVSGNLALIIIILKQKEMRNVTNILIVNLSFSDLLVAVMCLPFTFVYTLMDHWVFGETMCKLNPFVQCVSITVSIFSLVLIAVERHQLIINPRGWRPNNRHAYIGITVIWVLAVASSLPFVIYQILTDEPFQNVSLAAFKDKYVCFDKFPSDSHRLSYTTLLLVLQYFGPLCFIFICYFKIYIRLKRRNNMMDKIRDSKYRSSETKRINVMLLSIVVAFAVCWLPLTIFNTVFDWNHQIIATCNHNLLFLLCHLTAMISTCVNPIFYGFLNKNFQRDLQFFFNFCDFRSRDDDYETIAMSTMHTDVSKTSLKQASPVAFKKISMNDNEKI

Rhesus monkey [11] = test: Effective dose to stimulate lipolysis in Rhesus monkeys(iv); assay type: functional, Cercopithecidae; conditions: Macaca mulatta
[12] = target: T4, Neuropeptide Y receptor type 2 (Rattus norvegicus, UniProt Q9ERC0); test: The compound was tested for the binding affinity against Neuropeptide Y receptor type 2
T4 sequence (Q9ERC0 whole entry): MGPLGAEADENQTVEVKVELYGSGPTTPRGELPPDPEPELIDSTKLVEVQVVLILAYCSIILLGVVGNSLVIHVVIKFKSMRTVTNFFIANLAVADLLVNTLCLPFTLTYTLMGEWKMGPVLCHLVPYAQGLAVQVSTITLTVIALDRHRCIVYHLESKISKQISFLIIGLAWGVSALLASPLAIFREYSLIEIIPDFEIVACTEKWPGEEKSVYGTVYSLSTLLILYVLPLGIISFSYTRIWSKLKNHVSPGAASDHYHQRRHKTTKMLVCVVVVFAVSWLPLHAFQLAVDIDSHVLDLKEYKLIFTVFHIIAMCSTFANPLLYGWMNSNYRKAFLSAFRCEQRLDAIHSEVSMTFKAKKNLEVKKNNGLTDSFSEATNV

[13] = target: T3, Neuropeptide Y receptor type 1; test: The compound was tested for the binding affinity against NPY1 (Neuropeptide Y receptor type 1)
[14] = target: Neuropeptide Y receptor type 4 (Rattus norvegicus, UniProt Q63447); test: The compound was tested for the binding affinity against Neuropeptide Y receptor type 4
Neuropeptide Y receptor type 4, sequence (Q63447 whole entry): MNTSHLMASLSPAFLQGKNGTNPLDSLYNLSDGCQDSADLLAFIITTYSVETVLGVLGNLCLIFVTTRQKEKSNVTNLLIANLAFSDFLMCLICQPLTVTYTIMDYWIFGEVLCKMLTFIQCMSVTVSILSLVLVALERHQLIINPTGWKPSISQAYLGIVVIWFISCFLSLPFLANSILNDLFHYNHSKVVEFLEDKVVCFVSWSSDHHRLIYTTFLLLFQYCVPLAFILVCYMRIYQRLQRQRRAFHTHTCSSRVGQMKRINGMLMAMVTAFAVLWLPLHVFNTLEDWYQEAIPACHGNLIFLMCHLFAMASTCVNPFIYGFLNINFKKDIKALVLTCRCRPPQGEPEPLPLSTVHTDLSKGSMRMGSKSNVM

[15] = target: T5, Neuropeptide Y receptor type 1 (Homo sapiens, UniProt P25929); test: The compound was tested for the binding affinity against Neuropeptide Y receptor type 1
T5 sequence (P25929 whole entry): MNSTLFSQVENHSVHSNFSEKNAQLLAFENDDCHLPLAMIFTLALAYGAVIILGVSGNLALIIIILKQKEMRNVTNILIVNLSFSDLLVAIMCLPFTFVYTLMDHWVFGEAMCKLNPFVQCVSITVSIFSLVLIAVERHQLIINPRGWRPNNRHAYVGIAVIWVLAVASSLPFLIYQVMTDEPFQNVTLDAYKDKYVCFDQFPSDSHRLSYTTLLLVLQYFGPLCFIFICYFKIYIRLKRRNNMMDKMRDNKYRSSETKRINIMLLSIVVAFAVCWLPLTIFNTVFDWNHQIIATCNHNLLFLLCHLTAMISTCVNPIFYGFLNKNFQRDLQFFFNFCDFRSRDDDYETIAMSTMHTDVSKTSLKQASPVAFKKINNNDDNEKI

[16] = target: T6, Cholecystokinin receptor type A (Mus musculus, UniProt O08786); test: Binding affinity in Cholecystokinin type A receptor binding assay […]
T6 sequence (O08786 whole entry): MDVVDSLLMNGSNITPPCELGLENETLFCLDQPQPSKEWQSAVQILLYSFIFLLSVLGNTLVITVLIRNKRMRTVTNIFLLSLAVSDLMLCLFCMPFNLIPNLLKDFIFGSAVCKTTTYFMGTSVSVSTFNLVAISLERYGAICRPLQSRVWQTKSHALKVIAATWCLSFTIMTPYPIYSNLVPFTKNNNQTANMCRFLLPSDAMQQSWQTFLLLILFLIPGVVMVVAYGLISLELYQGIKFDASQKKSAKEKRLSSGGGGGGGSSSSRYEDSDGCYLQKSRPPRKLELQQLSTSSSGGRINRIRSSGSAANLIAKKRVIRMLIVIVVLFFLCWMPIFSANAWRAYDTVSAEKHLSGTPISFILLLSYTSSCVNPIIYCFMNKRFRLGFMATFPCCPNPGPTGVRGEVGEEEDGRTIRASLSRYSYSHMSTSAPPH

Rhesus monkey [17] = test: Effective dose to stimulate lipolysis in Rhesus monkeys (iv); assay type: functional, Cercopithecidae; conditions: Macaca mulatta

bioavailability [1]: 1%
Structure (SMILES): CCCCCCNC(=O)Nc1ccc(S(=O)(=O)Nc2ccc(CCNC[C@H](O)COc3ccc(O)cc3)cc2)cc1 [L-755507]

EC50 [2]: < 300 nM | Intrinsic activity [3]: > 80%
Structure (SMILES): CCCCCCP(=O)(O)COc1ccc(C[C@@H](C)NC[C@H](O)COc2ccc(O)c3c2CCC(=O)N3)cc1

EC50 [5]: 30 nM
Structure (SMILES): CC(C)(Cc1ccc(Oc2ccc(C(N)=O)cn2)cc1)NC[C@H](O)COc1cccc2[nH]c(=O)[nH]c12

F [7]: 41% | bioavailability [7]: 47% | bioavailability [8]: 4%
Structure (SMILES): CC(C)c1ccc(S(=O)(=O)Nc2ccc(CCNC[C@H](O)COc3ccc(N)nc3)cc2)cc1

Ki [5]: 9 nM
Structure (SMILES): CS(=O)(=O)Nc1cc([C@@H](O)CN[C@H](Cc2cccc(Cl)c2)c2ccc(OC(F)F)cc2)ccc1O

bioavailability [9]: 51%
Structure (SMILES): O=S(=O)(Nc1ccc(CCNC[C@H](O)c2cccnc2)cc1)c1ccc(I)cc1

bioavailability [7]: 47%
Structure (SMILES): O=S(=O)(Nc1ccc(CCNC[C@H](O)COc2cccnc2)cc1)c1ccc(I)cc1 [L-749372]
ED50 (Rhesus monkey [11]): 2 mg/kg

EC50 [2]: < 300 nM | Intrinsic activity [3]: > 80%
Structure (SMILES): C[C@H](Cc1ccc(OCP(=O)(O)c2ccccc2)cc1)NC[C@H](O)COc1ccc(O)c(NS(C)(=O)=O)c1

The next lines start with the compound.

Structure (SMILES): Cc1cc(N2CCCC2)cc(/C=C/c2cccc(C(F)(F)F)c2)n1
IC50 [4]: 4.1 nM

Structure (SMILES): CN(C)CCCNc1nc(NC[C@H]2CC[C@H](CNS(=O)(=O)c3cccc4ccccc34)CC2)nc2ccccc12
inhibition in vivo at 30 mg/kg (Rattus norvegicus): 96%

Structure (SMILES): COc1ccc(-c2cc(NC(=O)CC34CCCC3Cc3ccccc3C4)[nH]n2)cc1OC (configuration not stated)
IC50 [4]: 2.3 nM

Structure (SMILES): COc1ccc(N(C(=O)CN2C(=O)C(Cc3n[nH]c4ccccc34)C(=O)N(c3ccccc3)c3ccccc32)C(C)C)cc1 (configuration not stated)
bioavailability [6]: 8%

Structure (SMILES): Clc1ccc(OCc2nc3c(OCCCN4CCCCC4)cccc3n2CCCC2CCCNC2)cc1 (configuration not stated)
IC50 [10]: 1.7 nM

Structure (SMILES): O=C(CN1CCC(n2c(=O)[nH]c3ccccc32)CC1)Nc1ccc2c(c1)-c1ccccc1C2=O
IC50 [12]: > 5 µM | IC50 [13]: > 5 µM | IC50 [14]: > 5 µM

Structure (SMILES): CC[C@H]1CC[C@@](c2cccc(OCOC)c2)(N2CCN(c3ccccc3)CC2)CC1
IC50 [15]: 39 nM

Structure (SMILES): CCCCNC(=O)[C@@H]1Cc2ccccc2N1C(=O)CC(N)CC (some centres not stated)
Ki [16]: 7 nM

Structure (SMILES): Cn1c(C(=O)O)cc2cc(OCCNC[C@H](O)c3ccc(N)nc3)ccc21
bioavailability [8]: < 10% | EC50 [5]: 300 nM

Structure (SMILES): COc1ccc(-c2cc(NC(=O)Cc3ccc4ccccc4c3)[nH]n2)cc1OC
IC50 [4]: 8.3 nM

Structure (SMILES): Nc1ccc(OC[C@@H](O)CNCCc2ccc(NS(=O)(=O)c3ccc(I)cc3)cc2)cn1
ED50 (Rhesus monkey [17]): 0.8 mg/kg
